According to patent US20240316047A1, “INHIBITORS OF RNA HELICASE DHX9 AND USES THEREOF” (ACCENT THERAPEUTICS, INC., priority 2022, published 2024):

Target: Human recombinant DHX9 protein (Homo sapiens (Human), UniProt Q08211)
Assay: DHX9 ATPase assay (ADP-Glo)
Format: biochemical
Details: for IC50: read-out: DHX9 Biochemical Inflection Point

Human recombinant DHX9 protein, sequence (Q08211 whole entry): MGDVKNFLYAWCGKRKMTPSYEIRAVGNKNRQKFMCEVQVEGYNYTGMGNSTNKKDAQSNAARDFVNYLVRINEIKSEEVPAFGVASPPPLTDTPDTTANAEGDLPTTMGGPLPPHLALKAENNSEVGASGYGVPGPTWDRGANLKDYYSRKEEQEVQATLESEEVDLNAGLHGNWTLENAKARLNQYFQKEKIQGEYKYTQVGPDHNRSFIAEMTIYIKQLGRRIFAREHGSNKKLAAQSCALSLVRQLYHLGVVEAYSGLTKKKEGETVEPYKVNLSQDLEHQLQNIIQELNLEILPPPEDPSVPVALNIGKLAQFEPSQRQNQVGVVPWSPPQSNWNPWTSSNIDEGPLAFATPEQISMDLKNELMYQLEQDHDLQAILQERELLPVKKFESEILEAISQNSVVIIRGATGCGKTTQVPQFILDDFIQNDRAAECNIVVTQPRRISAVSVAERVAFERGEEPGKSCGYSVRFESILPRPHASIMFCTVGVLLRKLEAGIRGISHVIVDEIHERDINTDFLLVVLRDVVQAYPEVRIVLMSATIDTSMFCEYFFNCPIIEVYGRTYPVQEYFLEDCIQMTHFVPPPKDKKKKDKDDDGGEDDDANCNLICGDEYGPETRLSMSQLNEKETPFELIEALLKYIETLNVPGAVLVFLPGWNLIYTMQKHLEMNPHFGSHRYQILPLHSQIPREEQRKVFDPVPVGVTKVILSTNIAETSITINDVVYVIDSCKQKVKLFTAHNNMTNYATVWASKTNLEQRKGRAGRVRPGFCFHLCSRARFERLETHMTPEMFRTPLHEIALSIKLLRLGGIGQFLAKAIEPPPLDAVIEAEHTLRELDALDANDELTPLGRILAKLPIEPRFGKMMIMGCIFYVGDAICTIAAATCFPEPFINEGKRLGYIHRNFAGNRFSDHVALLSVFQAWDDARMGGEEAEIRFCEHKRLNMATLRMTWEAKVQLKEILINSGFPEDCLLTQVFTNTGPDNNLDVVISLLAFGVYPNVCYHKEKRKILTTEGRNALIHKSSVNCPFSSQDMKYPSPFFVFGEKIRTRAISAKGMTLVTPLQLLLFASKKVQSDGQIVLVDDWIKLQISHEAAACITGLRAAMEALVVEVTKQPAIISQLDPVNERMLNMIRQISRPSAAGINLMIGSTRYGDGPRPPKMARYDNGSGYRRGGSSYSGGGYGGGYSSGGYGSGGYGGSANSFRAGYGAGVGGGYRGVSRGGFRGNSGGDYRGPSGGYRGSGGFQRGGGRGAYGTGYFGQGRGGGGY

| DHX9 Biochemical Max Inhibition | IC50 | SMILES |
| --- | --- | --- |
| 65.3 | 42.4 nM | Cn1cc(C(=O)Nc2cc(Cl)cc(NS(C)(=O)=O)c2)cc1-c1ccc(N2CCC(F)(F)C2)cn1 [Example 527] |
| 58.4 | 122 nM | CS(=O)(=O)Nc1cc(Cl)cc(NC(=O)c2cnn(-c3ncccc3Oc3cccc(F)c3)c2)c1 [Example 427] |
| 72.4% | 1.8 nM | Cc1cc(C(=O)Nc2cc(Cl)cc(NS(C)(=O)=O)c2)cn1-c1ccc(N2CCN(C)C(=O)C2)cn1 [Example 94] |
| 67.4 | 146 nM | Cc1sc(C(=O)Nc2cc(Cl)cc(NS(C)(=O)=O)c2)cc1-c1ncc(N2CCC3(C2)CC3(F)F)cc1F (centres unmarked) [Example 480] |
| 61.3 | 21.8 nM | Cn1cc(C(=O)Nc2cc(Cl)cc(NS(C)(=O)=O)c2)cc1-c1ncc(N2CC(F)(F)C2)cc1OCc1cnco1 [Example 733] |
| 69.3 | 32.1 nM | Cc1sc(C(=O)Nc2cc(Cl)cc(NS(C)(=O)=O)c2)cc1-c1ncc(S(C)(=O)=O)cn1 [Example 711] |
| 78% | 29.2 nM | Cc1cc(C(=O)Nc2cc(Cl)cc(NS(C)(=O)=O)c2)cn1-c1ccc(N2CCN(C(=O)C(C)C)CC2)cn1 [Example 283] |
| 77.1 | 6.6 nM | Cc1cc(C(=O)Nc2cc(Cl)cc(NS(C)(=O)=O)c2)cn1-c1ccc(N2CC(F)C2)cn1 [Example 395] |
| 56.7% | 335 nM | CS(=O)(=O)Nc1cc(Cl)cc(NC(=O)c2cc3ccc(Cl)cn3c2)c1 [Example 299] |
| 54.9% | 442 nM | Cn1nc(-c2ccccn2)cc1C(=O)Nc1cc(Cl)cc(NS(C)(=O)=O)c1 [Example 141] |
| 60.6% | 375 nM | CS(=O)(=O)Nc1cc(Cl)cc(NC(=O)c2cnn(CCc3ccccc3)c2)c1 [Example 308] |
| 74.9 | 9 nM | COCc1ccc(-n2cc(C(=O)Nc3cc(Cl)cc(NS(C)(=O)=O)c3)cc2C)nc1 [Example 447] |
| 91.5 | 24.9 nM | Cn1cc(C(=O)Nc2cc(Cl)cc(NS(C)(=O)=O)c2)cc1-c1ncc(Cl)cn1 [Example 577] |
| 79.3 | 2.9 nM | CS(=O)(=O)Nc1cc(Cl)cc(NC(=O)c2cnn(-c3ncccc3-c3cncc(F)c3)c2)c1 [Example 392] |
| 70.8 | 95.5 nM | Cn1cc(C(=O)Nc2cc(Cl)cc(NS(C)(=O)=O)c2)cc1-c1ncc(N2CC3(C2)CC(F)(F)C3)cc1F [Example 702] |
| 73.4% | 84.4 nM | CS(=O)(=O)Nc1cc(Cl)cc(NC(=O)c2cnn(-c3ncccc3S(C)(=O)=O)c2)c1 [Example 199] |
| 58.3 | 50.6 nM | Cc1cc(C(=O)Nc2cc(Cl)cc(NS(C)(=O)=O)c2)cn1-c1ncc(N2CCC3(C2)CC3(F)F)cc1F (centres unmarked) [Example 414] |
| 59.1% | 399 nM | Cc1cccc2cc(C(=O)Nc3cc(Cl)cc(NS(C)(=O)=O)c3)cn12 [Example 304] |
| 73.9 | 1.6 nM | COC1CCN(c2ccc(-c3cc(C(=O)Nc4cc(Cl)cc(NS(C)(=O)=O)c4)cn3C)nc2)CC1 [Example 515, N-(3-chloro-5-methanesulfonamidophenyl)-5-[5-(4-methoxypiperidin-1-yl)pyridin-2-yl]-1-methyl-1H-pyrrole-3-carboxamide] |
| 58.7% | 132 nM | CS(=O)(=O)Nc1cc(Cl)cc(NC(=O)c2cc3cnccc3s2)c1 [Example 288] |
| 70.2 | 12.5 nM | CN1CC(Oc2cnc(-c3cc(C(=O)Nc4cc(Cl)cc(NS(C)(=O)=O)c4)cn3CC(F)F)nc2)C1 [Example 679] |
| 70.8 | 26.4 nM | Cc1sc(C(=O)Nc2cc(Cl)cc(NS(C)(=O)=O)c2)cc1-c1ncc(N2CC(F)(F)C2)cc1F [Example 532, N-(3-chloro-5-methanesulfonamidophenyl)-4-[5-(3,3-difluoroazetidin-1-yl)-3-fluoropyridin-2-yl]-5-methylthiophene-2-carboxamide] |
| 74.8 | 5.9 nM | Cc1sc(C(=O)Nc2cc(Cl)cc(NS(C)(=O)=O)c2)cc1-c1ccc(N2CCN(C(=O)C3CC3)CC2)cn1 [Example 590, N-(3-chloro-5-methanesulfonamidophenyl)-4-[5-(4-cyclopropanecarbonylpiperazin-1-yl)pyridin-2-yl]-5-methylthiophene-2-carboxamide] |
| 67.8% | 146 nM | CCn1cc(C(=O)Nc2cc(Cl)cc(NS(C)(=O)=O)c2)cc1-c1ccccc1 [Example 79, N-(3-chloro-5-(methylsulfonamido)phenyl)-1-ethyl-5-phenyl-1H-pyrrole-3-carboxamide] |
| 61.8 | 85.4 nM | Cn1cc(C(=O)Nc2cc(Cl)cc(NS(C)(=O)=O)c2)cc1-c1ccc(N2CCC3(C2)CC3(F)F)cn1 (centres unmarked) [Example 495] |
| 78.1% | 83.8 nM | Cc1sc(C(=O)Nc2cc(Cl)cc(NS(C)(=O)=O)c2)cc1-c1ncccc1CC(=O)N(C)C [Example 385] |
| 92.4 | 57.8 nM | Cc1cc(N2CCC(F)(F)CC2)cnc1-c1cc(C(=O)Nc2cc(Cl)cc(NS(C)(=O)=O)c2)sc1C [Example 602] |
| 78.7% | 17.7 nM | CN(C)C(=O)c1cccnc1-c1csc(C(=O)Nc2cc(Cl)cc(NS(C)(=O)=O)c2)c1 [Example 222] |

Further lines, the molecule ahead of its results:

| SMILES | DHX9 Biochemical Max Inhibition | IC50 |
| --- | --- | --- |
| CS(=O)(=O)Nc1cc(Cl)cc(NC(=O)c2cc(-c3ncc(OC4CN(S(C)(=O)=O)C4)cn3)n(CC(F)(F)F)c2)c1 [Example 651] | 59.6 | 70.6 nM |
| CS(=O)(=O)Nc1cc(Br)cc(NC(=O)c2cnn(-c3cccc(C(F)F)n3)c2)c1 [Example 56] | 48.8% | 197 nM |
| Cc1cccnc1-c1nc(C(=O)Nc2cc(Br)cc(NS(C)(=O)=O)c2)cn1C [Example 96, N-(3-bromo-5-(methylsulfonamido)phenyl)-1-methyl-2-(3-methylpyridin-2-yl)-1H-imidazole-4-carboxamide] | 52.8% | 253 nM |
| CS(=O)(=O)Nc1cc(Cl)cc(NC(=O)c2cc3c(s2)CCC3Oc2cccnc2)c1 (centres unmarked) [Example 687] | 68.1 | 119 nM |
| Cc1sc(C(=O)Nc2cc(Cl)cc(NS(C)(=O)=O)c2)cc1-c1ncc(F)cc1Cl [Example 359] | 68.3% | 54.9 nM |
| CS(=O)(=O)Nc1cc(Br)cc(NC(=O)c2cc(-c3ncccn3)cs2)c1 [Example 25] | 61.3% | 5.6 nM |
| CS(=O)(=O)Nc1cc(Cl)cc(NC(=O)c2cc3c(F)ccc(F)c3s2)c1 [Example 325] | 63.9% | 591 nM |
| CS(=O)(=O)Nc1cc(Cl)cc(NC(=O)c2cc(-c3ncc(F)cc3OCc3cncnc3)n(CC(F)(F)F)c2)c1 [Example 735] | 80.1 | 7 nM |
| CC(C)(C)Oc1cnc(-c2csc(C(=O)Nc3cc(Cl)cc(NS(C)(=O)=O)c3)c2)nc1 [Example 379] | 65.4% | 41.8 nM |
| Cc1sc(C(=O)Nc2cc(Cl)cc(NS(C)(=O)=O)c2)cc1-c1c(F)cc(F)cc1F [Example 378] | 80.9% | 874 nM |
| CCS(=O)(=O)Nc1cc(Cl)cc(NC(=O)c2cc(-c3ncc(F)cc3OCc3cncnc3)c(C)s2)c1 [Example 623] | 94.5 | 3.9 nM |
| CC(C)(C)OC(=O)NC1CC2(C1)CC(n1cc(C(=O)Nc3cc(Cl)cc(NS(C)(=O)=O)c3)cn1)C2 (centres unmarked) [Example 318] | 64.4% |  |
| CCS(=O)(=O)Nc1cc(Cl)cc(NC(=O)c2cc(-c3ncc(OC)cn3)c(C)s2)c1 [Example 353] | 69.2% | 24.2 nM |
| CS(=O)(=O)Nc1cc(Cl)cc(NC(=O)c2cc(-c3ncccc3Oc3cccnc3)cs2)c1 [Example 239] | 67.7% | 8 nM |
| CCS(=O)(=O)Nc1cc(Cl)cc(NC(=O)c2cc(-c3ncc(F)cc3Cl)c(C)s2)c1 [Example 355] | 69.9% | 34.1 nM |
| CCS(=O)(=O)Nc1cc(Cl)cc(NC(=O)c2cc(-c3ncc(N4CC(F)C4)cn3)c(C)s2)c1 [Example 509] | 90.9 | 4 nM |
| CS(=O)(=O)Nc1cc(Cl)cc(NC(=O)c2cc(Br)cs2)c1 [Example 241] | 63.8% | 115 nM |
| Cc1cc(C(=O)Nc2cc(Br)cc(NS(C)(=O)=O)c2)cn1C1CCCCC1 [Example 85, N-(3-bromo-5-(methylsulfonamido)phenyl)-1-cyclohexyl-5-methyl-1H-pyrrole-3-carboxamide] | 59.5% | 99 nM |
| CS(=O)(=O)Nc1cc(Cl)cc(NC(=O)c2cnn(C3CC4(CNC4)C3)c2)c1 [Example 146] | 71.9% | 30.4 nM |
| CCS(=O)(=O)Nc1cc(Cl)cc(NC(=O)c2cc(-c3ncc(OC(C)C)cn3)c(C)s2)c1 [Example 565] | 60 | 37.1 nM |
| CS(=O)(=O)Nc1cc(Cl)cc(NC(=O)c2cc(-c3ncc(F)cn3)n(CC(F)(F)F)c2)c1 [Example 562] | 62.3 | 64.5 nM |
| CS(=O)(=O)Nc1cc(Cl)cc(NC(=O)c2cc(-c3ccc(C(F)(F)F)cn3)cs2)c1 [Example 370] | 64.3% |  |
| CS(=O)(=O)Nc1cc(Cl)cc(NC(=O)c2cnn(-c3ncc(F)cc3OCc3cccc(F)c3)c2)c1 [Example 202] | 72.3% | 12.7 nM |
| Cc1sc(C(=O)Nc2cc(Cl)cc(NS(C)(=O)=O)c2)cc1-c1ncc(OC(F)F)cn1 [Example 345] | 77.1% | 33.6 nM |
| Cc1sc(C(=O)Nc2cc(Cl)cc(NS(C)(=O)=O)c2)cc1-c1ncc(F)cc1C#CC(C)(C)O [Example 696] | 75.4 | 11.5 nM |
